Measurements reported in patent US20060009478A1, “Methods for the treatment of back pain” (priority 2003, published 2006).
Where two headings read alike, the source gives them in different places.

Key:
[1] = tested on: patients with moderate to severe chronic low back pain; assay: Quality of analgesia, low back pain study; assay type: in vivo, human; conditions: LOCF, ITT
Procedure: Quality of analgesia was assessed at clinic visits during the titration and fixed-dose periods. The patient was prompted with the question, “How would you rate the quality of your pain relief at this time?” and responses were selected from poor, fair, good, very good, and excellent.
Global assessment and quality of analgesia ratings were summarized descriptively by treatment group for both the titration and fixed-dose periods. Treatments were compared at each visit in the fixed-dose period, globally and in pairwise fashion, using the Cochran-Mantel-Haenszel row mean scores (CMH-RMS) test, using equally spaced scores.

[2] = tested on: patients with moderate to severe chronic pain due to osteoarthritis of the hip or knee
[3] = 3-week study, intent to treat population
[4] = Week 1, Days 1-3: 10 mg OXY/d, Days 4-8: 20 mg OXY/d

## COc1ccc2c3c1O[C@H]1C(=O)CC[C@@]4(O)[C@@H](C2)N(C)CC[C@]314 [OXY QID, oxycodone]
[1]; fixed dose period week 1
  Quality of analgesia EXCELLENT (4), number of patients: 25
  Quality of analgesia EXCELLENT (4), percent of patients: 12.1%
  Quality of analgesia FAIR (1), number of patients: 26
  Quality of analgesia FAIR (1), percent of patients: 12.6%
  Quality of analgesia GOOD (2), number of patients: 69
  Quality of analgesia GOOD (2), percent of patients: 33.5%
  Quality of analgesia POOR (0), number of patients: 33
  Quality of analgesia POOR (0), percent of patients: 16.0%
  Quality of analgesia VERY GOOD (3), number of patients: 52
  Quality of analgesia VERY GOOD (3), percent of patients: 25.2%
[1]; fixed dose period week 2
  Quality of analgesia EXCELLENT (4), number of patients: 24
  Quality of analgesia EXCELLENT (4), percent of patients: 11.7%
  Quality of analgesia FAIR (1), number of patients: 27
  Quality of analgesia FAIR (1), percent of patients: 13.1%
  Quality of analgesia GOOD (2), number of patients: 70
  Quality of analgesia GOOD (2), percent of patients: 34.0%
  Quality of analgesia POOR (0), number of patients: 32
  Quality of analgesia POOR (0), percent of patients: 15.5%
  Quality of analgesia VERY GOOD (3), number of patients: 52
  Quality of analgesia VERY GOOD (3), percent of patients: 25.2%
[1]; fixed dose period week 4
  Quality of analgesia EXCELLENT (4), number of patients: 20
  Quality of analgesia EXCELLENT (4), percent of patients: 9.7%
  Quality of analgesia FAIR (1), number of patients: 28
  Quality of analgesia FAIR (1), percent of patients: 13.6%
  Quality of analgesia GOOD (2), number of patients: 63
  Quality of analgesia GOOD (2), percent of patients: 30.6%
  Quality of analgesia POOR (0), number of patients: 35
  Quality of analgesia POOR (0), percent of patients: 17.0%
  Quality of analgesia VERY GOOD (3), number of patients: 59
  Quality of analgesia VERY GOOD (3), percent of patients: 28.6%
[1]; fixed dose period week 6
  Quality of analgesia EXCELLENT (4), number of patients: 24
  Quality of analgesia EXCELLENT (4), percent of patients: 11.7%
  Quality of analgesia FAIR (1), number of patients: 34
  Quality of analgesia FAIR (1), percent of patients: 16.5%
  Quality of analgesia GOOD (2), number of patients: 67
  Quality of analgesia GOOD (2), percent of patients: 32.5%
  Quality of analgesia POOR (0), number of patients: 36
  Quality of analgesia POOR (0), percent of patients: 17.5%
  Quality of analgesia VERY GOOD (3), number of patients: 44
  Quality of analgesia VERY GOOD (3), percent of patients: 21.4%
[1]; fixed dose period week 8
  Quality of analgesia EXCELLENT (4), number of patients: 24
  Quality of analgesia EXCELLENT (4), percent of patients: 11.7%
  Quality of analgesia FAIR (1), number of patients: 35
  Quality of analgesia FAIR (1), percent of patients: 17.0%
  Quality of analgesia GOOD (2), number of patients: 72
  Quality of analgesia GOOD (2), percent of patients: 35.0%
  Quality of analgesia POOR (0), number of patients: 33
  Quality of analgesia POOR (0), percent of patients: 16.0%
  Quality of analgesia VERY GOOD (3), number of patients: 41
  Quality of analgesia VERY GOOD (3), percent of patients: 19.9%
[1]; fixed dose period week 10
  Quality of analgesia EXCELLENT (4), number of patients: 24
  Quality of analgesia EXCELLENT (4), percent of patients: 11.7%
  Quality of analgesia FAIR (1), number of patients: 35
  Quality of analgesia FAIR (1), percent of patients: 17.0%
  Quality of analgesia GOOD (2), number of patients: 66
  Quality of analgesia GOOD (2), percent of patients: 32.0%
  Quality of analgesia POOR (0), number of patients: 35
  Quality of analgesia POOR (0), percent of patients: 17.0%
  Quality of analgesia VERY GOOD (3), number of patients: 45
  Quality of analgesia VERY GOOD (3), percent of patients: 21.8%
[1]; fixed dose period week 12
  Quality of analgesia EXCELLENT (4), number of patients: 21
  Quality of analgesia EXCELLENT (4), percent of patients: 10.2%
  Quality of analgesia FAIR (1), number of patients: 40
  Quality of analgesia FAIR (1), percent of patients: 19.4%
  Quality of analgesia GOOD (2), number of patients: 64
  Quality of analgesia GOOD (2), percent of patients: 31.1%
  Quality of analgesia POOR (0), number of patients: 37
  Quality of analgesia POOR (0), percent of patients: 18.0%
  Quality of analgesia VERY GOOD (3), number of patients: 43
  Quality of analgesia VERY GOOD (3), percent of patients: 20.9%
[2]; [3]
  Discontinuation of treatment because of adverse event: Any adverse event, % of patients: 28.4%
  Discontinuation of treatment because of adverse event: Any adverse event, number of patients: 29
  Discontinuation of treatment because of adverse event: Constipation, % of patients: 1.0%
  Discontinuation of treatment because of adverse event: Constipation, number of patients: 1
  Discontinuation of treatment because of adverse event: Diarrhea, % of patients: 0.0%
  Discontinuation of treatment because of adverse event: Diarrhea, number of patients: 0
  Discontinuation of treatment because of adverse event: Dizziness, % of patients: 1.0%
  Discontinuation of treatment because of adverse event: Dizziness, number of patients: 1
  Discontinuation of treatment because of adverse event: Euphoric mood, % of patients: 0.0%
  Discontinuation of treatment because of adverse event: Euphoric mood, number of patients: 0
  Discontinuation of treatment because of adverse event: Eye disorders, % of patients: 0.0%
  Discontinuation of treatment because of adverse event: Eye disorders, number of patients: 0
  Discontinuation of treatment because of adverse event: Gastrointestinal disorders, % of patients: 12.7%
  Discontinuation of treatment because of adverse event: Gastrointestinal disorders, number of patients: 13
  Discontinuation of treatment because of adverse event: General disorders and administration site conditions, % of patients: 2.0%
  Discontinuation of treatment because of adverse event: General disorders and administration site conditions, number of patients: 2
  Discontinuation of treatment because of adverse event: Headache, % of patients: 2.0%
  Discontinuation of treatment because of adverse event: Headache, number of patients: 2
  Discontinuation of treatment because of adverse event: Lethargy, % of patients: 0.0%
  Discontinuation of treatment because of adverse event: Lethargy, number of patients: 0
  Discontinuation of treatment because of adverse event: Nausea, % of patients: 6.9%
  Discontinuation of treatment because of adverse event: Nausea, number of patients: 7
  Discontinuation of treatment because of adverse event: Nervous system disorders, % of patients: 7.8%
  Discontinuation of treatment because of adverse event: Nervous system disorders, number of patients: 8
  Discontinuation of treatment because of adverse event: Pruritus, % of patients: 1.0%
  Discontinuation of treatment because of adverse event: Pruritus, number of patients: 1
  Discontinuation of treatment because of adverse event: Psychiatric disorders, % of patients: 1.0%
  Discontinuation of treatment because of adverse event: Psychiatric disorders, number of patients: 1
  Discontinuation of treatment because of adverse event: Sedation, % of patients: 2.0%
  Discontinuation of treatment because of adverse event: Sedation, number of patients: 2
  Discontinuation of treatment because of adverse event: Skin and subcutaneous tissue disorders, % of patients: 2.9%
  Discontinuation of treatment because of adverse event: Skin and subcutaneous tissue disorders, number of patients: 3
  Discontinuation of treatment because of adverse event: Sommolence, % of patients: 2.0%
  Discontinuation of treatment because of adverse event: Sommolence, number of patients: 2
  Discontinuation of treatment because of adverse event: Upper abdominal pain, % of patients: 0.0%
  Discontinuation of treatment because of adverse event: Upper abdominal pain, number of patients: 0
  Discontinuation of treatment because of adverse event: Vomiting, % of patients: 3.9%
  Discontinuation of treatment because of adverse event: Vomiting, number of patients: 4
[2]; [4]
  Adverse event Constipation, % of patients: 12.7%
  Adverse event Constipation, number of patients: 13
  Adverse event Dizziness, % of patients: 16.7%
  Adverse event Dizziness, number of patients: 17
  Adverse event Dry Mouth, % of patients: 5.9%
  Adverse event Dry Mouth, number of patients: 6
  Adverse event Fatigue, % of patients: 2.9%
  Adverse event Fatigue, number of patients: 3
  Adverse event Headache, % of patients: 16.7%
  Adverse event Headache, number of patients: 17
  Adverse event Nausea, % of patients: 23.5%
  Adverse event Nausea, number of patients: 24
  Adverse event Pruritus, % of patients: 7.8%
  Adverse event Pruritus, number of patients: 8
  Adverse event Sommolence, % of patients: 15.7%
  Adverse event Sommolence, number of patients: 16
  Adverse event Vomiting, % of patients: 3.9%
  Adverse event Vomiting, number of patients: 4
[2]; Week 2, 30 mg OXY/d
  Adverse event Constipation, % of patients: 7.1%
  Adverse event Constipation, number of patients: 6
  Adverse event Dizziness, % of patients: 11.8%
  Adverse event Dizziness, number of patients: 10
  Adverse event Dry Mouth, % of patients: 4.7%
  Adverse event Dry Mouth, number of patients: 4
  Adverse event Fatigue, % of patients: 0.0%
  Adverse event Fatigue, number of patients: 0
  Adverse event Headache, % of patients: 3.5%
  Adverse event Headache, number of patients: 3
  Adverse event Nausea, % of patients: 14.1%
  Adverse event Nausea, number of patients: 12
  Adverse event Pruritus, % of patients: 5.9%
  Adverse event Pruritus, number of patients: 5
  Adverse event Sommolence, % of patients: 7.1%
  Adverse event Sommolence, number of patients: 6
  Adverse event Vomiting, % of patients: 3.5%
  Adverse event Vomiting, number of patients: 3
[2]; Week 3, 40 mg OXY/d
  Adverse event Constipation, % of patients: 2.7%
  Adverse event Constipation, number of patients: 2
  Adverse event Dizziness, % of patients: 5.3%
  Adverse event Dizziness, number of patients: 4
  Adverse event Dry Mouth, % of patients: 0.0%
  Adverse event Dry Mouth, number of patients: 0
  Adverse event Headache, % of patients: 8.0%
  Adverse event Headache, number of patients: 6
  Adverse event Nausea, number of patients: 8
  Adverse event Pruritus, % of patients: 4.0%
  Adverse event Pruritus, number of patients: 3
  Adverse event Sommolence, % of patients: 2.7%
  Adverse event Sommolence, number of patients: 2
  Adverse event Vomiting, % of patients: 12.0%
  Adverse event Vomiting, number of patients: 9
[2]; of the 360 patients who received study drug, 3-week treatment
  Patients who discontinued treatment because of adverse events (number): 29
